In PubChem BioAssay (NCI):
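Cells were grown in 96-well plates and exposed to each compound for 48 hours at five concentrations; endpoints were interpolated linearly between bracketing concentrations, or set to the highest concentration if not reached. GI50 marks 50% less growth. The concentration for full growth arrest is given as TGI.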

Tests used:
Assay in all cases: NCI tumour cell line growth inhibition, 48 h
SF-268 CNS = tested on: SF-268 CNS
K-562 leukemia = tested on: K-562 leukemia
SF-295 CNS = tested on: SF-295 CNS
MCF7 breast = tested on: MCF7 breast
CAKI-1 renal = tested on: CAKI-1 renal
HL-60(TB) leukemia = tested on: HL-60(TB) leukemia
SW-620 colon = tested on: SW-620 colon
NCI/ADR-RES ovarian = tested on: NCI/ADR-RES ovarian
SK-MEL-5 melanoma = tested on: SK-MEL-5 melanoma
NCI-H460 lung = tested on: NCI-H460 lung

| SMILES | TGI (SF-268 CNS) [µM] | TGI (K-562 leukemia) [µM] | TGI (SF-295 CNS) [µM] | TGI (MCF7 breast) [µM] | TGI (CAKI-1 renal) [µM] | TGI (HL-60(TB) leukemia) [µM] | TGI (SW-620 colon) [µM] | TGI (NCI/ADR-RES ovarian) [µM] | TGI (SK-MEL-5 melanoma) [µM] | TGI (NCI-H460 lung) [µM] | GI50 (SF-295 CNS) [µM] | GI50 (NCI-H460 lung) [µM] | GI50 (CAKI-1 renal) [µM] | GI50 (SW-620 colon) [µM] | GI50 (SK-MEL-5 melanoma) [µM] | GI50 (SF-268 CNS) [µM] |
| --- | --- | --- | --- | --- | --- | --- | --- | --- | --- | --- | --- | --- | --- | --- | --- | --- |
| O=C(c1ccccc1)c1ccc2nc(-c3c(Cl)c(Cl)c(Cl)c(Cl)c3-c3nnc(-c4ccccc4)o3)[nH]c2c1 | > 100 | > 100 | 73.9 | > 100 | > 100 | > 100 | > 100 | > 100 | 54.1 | – | – | – | – | – | – | – |
| CC1C(NNC(N)=O)Oc2cc3c(cc2C1c1ccccc1O)OCO3 (configuration not stated) | > 100 | 64.1 | 76.2 | > 100 | > 100 | 35.4 | 32.8 | – | > 100 | > 100 | – | – | – | – | – | – |
| CC(C(=O)OCc1ccccc1)N(Cc1ccccc1)Cc1ccccc1 (configuration not stated) | > 100 | > 100 | > 100 | – | > 100 | 79.2 | > 100 | – | > 100 | > 100 | – | – | – | – | – | – |
| O=C(NNC(=S)Nc1ccccc1)c1nsc2ccccc12 | > 100 | > 100 | – | – | – | 53.8 | > 100 | – | > 100 | > 100 | – | – | – | – | – | – |
| O=c1c2cc(C(F)(F)F)ccc2sc2c(NCCCNCCO)nc3ccccc3c12 | – | – | 3.3 | – | 2.81 | – | 2.98 | – | 3.01 | 2.57 | 1.81 | 1.22 | 1.48 | 1.54 | 1.62 | – |
| C#CC(O)(c1nc2ccccc2s1)c1nc2ccccc2s1 | > 100 | > 100 | 76.8 | 52.9 | > 100 | 46.1 | > 100 | 75.6 | 30.7 | – | – | – | – | – | – | – |
| COc1ccccc1OCC(COC(=O)Nc1ccccc1)OC(=O)Nc1ccccc1 (configuration not stated) | > 100 | > 100 | > 100 | – | > 100 | > 100 | > 100 | – | > 100 | > 100 | – | – | – | – | – | – |
| Cc1c(CNc2ccc(C(=O)NC(CCCNC(=O)c3ccccc3C(=O)O)C(=O)O)cc2)cnc2nc(N)nc(N)c12 (configuration not stated) | – | – | – | – | – | > 100 | > 100 | > 100 | – | – | – | – | – | – | – | 0.00161 |
| O=C1NC(=O)c2ccccc2/C1=C/c1ccc2c(c1)OCO2 | 82.1 | – | 83.1 | > 100 | 98.4 | > 100 | > 100 | 69.2 | 29.8 | – | – | – | – | – | – | – |
| C(/C=N/NC1=NCCCCN1)=N\NC1=NCCCCN1 | > 100 | > 100 | > 100 | > 100 | > 100 | – | > 100 | > 100 | > 100 | > 100 | – | – | – | – | – | – |
| Cc1ccc(S(=O)(=O)NC(=O)NC(Cc2ccc(O)cc2)C(=O)O)cc1 (configuration not stated) | > 100 | > 100 | > 100 | – | – | > 100 | > 100 | > 100 | > 100 | > 100 | – | – | – | – | – | – |
| Clc1sc(Cl)c2c1[C@@H](Cl)C[C@@H]2Cl | > 100 | > 100 | > 100 | > 100 | > 100 | – | > 100 | > 100 | > 100 | > 100 | – | – | – | – | – | – |
| O=C(Nc1sccc1S(=O)(=O)c1ccc(Cl)cc1)c1ccc(F)cc1F | 42.7 | 38.6 | 65.3 | > 100 | 65.9 | > 100 | > 100 | > 100 | > 100 | – | – | – | – | – | – | – |
| FC(F)(F)c1cc(N(C2c3ccccc3C=Cc3ccccc32)P(Cl)Cl)cc(C(F)(F)F)c1 | 33.8 | 42.7 | 41.8 | 50 | 59 | 81.6 | 82.6 | 21.6 | 32.7 | – | – | – | – | – | – | – |
| Cn1nc2ccc(Nc3cc(=O)[nH]c4ccc5nn(C)nc5c34)cc2n1 | > 100 | > 100 | > 100 | > 100 | > 100 | – | > 100 | > 100 | > 100 | > 100 | – | – | – | – | – | – |
| O=C(COc1ccc(OCC(=O)N2C(=O)CC(=O)N(c3ccc(Cl)cc3)C2=S)cc1)N1C(=O)CC(=O)N(c2ccc(Cl)cc2)C1=S | > 100 | > 100 | > 100 | > 100 | – | – | > 100 | 93.4 | > 100 | > 100 | – | – | – | – | – | – |
